According to patent US20240122932A1, “Methods of Treating B-Cell Malignancy Using Bcl-2 Inhibitor” (BeiGene Switzerland GmbH, priority 2021, published 2024):

System: JeKo-1 human mantle cell lymphoma (MCL) subcutaneous xenograft
Test: JeKo-1 human MCL subcutaneous xenograft model, Bcl-2 inhibitor with BTK inhibitor
Assay type: in vivo, NCG mice
Conditions: 20 mpk p.o. BID
Experimental: JeKo-1 cells were maintained as suspension cell cultures at 37° C. in a 5% CO2 atmosphere. Five to six-week-old female NCG mice were purchased from Gempharmatech of Information Technology Center. All animals were maintained under specific pathogen free (SPF) “full barrier” condition with free access to food and water. […] Mice were fed with complete granulated feed with Co60 radiosterilization (Beijing Ke Ao Xie Li Feed Co., Ltd.). All experiments were carried out in accordance with BeiGene's IACUC.
Re-suspended cells were placed on ice prior to inoculation. […] Each animal was injected subcutaneously with 1×10^7 cells in 200 μL of cell suspension in the right front flank via a 26-gauge needle. After implantation, primary tumor volume was measured in two dimensions using a caliper.
Transplanted animals were randomized into 8 groups with 10 mice per group on day 0 according to transplantation sequence and body weight. […] Treatments were administered by oral gavage (p.o.) in a volume of 10 mL/kg body weight. Body weight was assessed immediately before dosing and volume dosed was adjusted accordingly.
Individual body weight was recorded twice weekly, with mice being monitored daily for clinical signs of toxicity for the duration of the study. Mice were euthanized using carbon dioxide when their tumor volume reached 2,000 mm^3, the tumor was ulcerated, or body weight loss exceeded 20%.
Tumor volume (TV) was calculated using the formula: TV=0.5×(a×b^2) where a and b are the long and short diameters of the tumor, respectively. […] (treated t=treated tumor volume at time t, vehicle t=vehicle tumor volume at time t)

## C=CC(=O)N1CCC([C@@H]2CCNc3c(C(N)=O)c(-c4ccc(Oc5ccccc5)cc4)nn32)CC1 [Compound B, (S)-7-(1-acryloylpiperidin-4-yl)-2-(4-phenoxyphenyl)-4,5,6,7-tetra-hydropyrazolo[1,5-a]pyrimidine-3-carboxamide, reference compound]
  Mean TV (D 21) (mm^3 ± SEM): 799.8 ± 73.2 mm^3
Day 21, 20 mg/kg
  TGI (%): 56%
